Measurements published in ChEMBL document CHEMBL6071191, “Correlating Predicted Reactivities with Experimental Inhibition Data of Covalent ChlaDUB1 Inhibitors” (ACS Med Chem Lett, 2024).

What was measured:
[1] = Drug metabolism in PBS assessed as pseudo-first-order rate constant of Cysteine at 50 uM incubated for >10 hrs in presence of L-Cysteine by HPLC-UV analysis; assay type: ADME; settings: buffer
[2] = target: T1, Deubiquitinase and deneddylase Dub1 (Chlamydia trachomatis serovar L2 (strain ATCC VR-902B / DSM 19102 /434/Bu)) (UniProt B0B9A0); test: Binding affinity to Chlamydia trachomatis DUB1 using Ub-Rh110Gly as substrate assessed as ratio of Kinact/Ki
T1 sequence (whole entry): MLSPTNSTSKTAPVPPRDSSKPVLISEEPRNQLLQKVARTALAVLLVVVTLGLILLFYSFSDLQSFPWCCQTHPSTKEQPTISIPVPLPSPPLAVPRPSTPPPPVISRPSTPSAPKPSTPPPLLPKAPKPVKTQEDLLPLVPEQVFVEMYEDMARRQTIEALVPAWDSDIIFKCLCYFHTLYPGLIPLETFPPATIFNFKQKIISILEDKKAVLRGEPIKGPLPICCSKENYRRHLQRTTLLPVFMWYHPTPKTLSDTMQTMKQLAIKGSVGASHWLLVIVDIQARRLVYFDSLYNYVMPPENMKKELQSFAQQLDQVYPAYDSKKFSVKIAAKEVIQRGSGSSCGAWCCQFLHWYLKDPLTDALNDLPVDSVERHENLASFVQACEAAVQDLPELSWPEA

K [1] [h⁻¹]	Ratio [2] [M⁻¹ s⁻¹]	SMILES
0.824	0.761	COc1ccccc1CNC(=O)c1ccc(CNC(=O)[C@@H]2CCN(C#N)C2)cc1
	137	COc1ccccc1CNC(=O)c1ccc(CNC(=O)c2coc(C#N)n2)cc1
	32.2	COc1ccccc1CNC(=O)c1ccc(CNC(=O)c2nc(C#N)ncc2F)cc1

More lines, now with the values behind:

SMILES	K [1] [h⁻¹]	Ratio [2] [M⁻¹ s⁻¹]
COc1ccccc1CNC(=O)c1ccc(CNC(=O)C2CCN(C#N)CC2)cc1	0.151	
N#Cc1nccc(C(=O)NCc2ccc(C(=O)NCc3ccccc3)cc2)n1		10.7
COc1ccccc1CNC(=O)c1ccc(CNS(=O)(=O)c2cnc(C#N)nc2)cc1		15.6
COc1ccccc1CNC(=O)c1ccc(CNC(=O)[C@H]2CCN(C#N)C2)cc1	0.87	1.1
